Results taken from US10612051B2, “Method of producing bioproducts” (White Dog Labs, Inc., priority 2015, dated 2020).

Key:
[1] = Extraction of aqueous bioproduct solutions with 1-butene in a pressure vessel (distribution coefficient); type: physicochemical; details: for DC (bioproduct distribution coefficient): 1-butene / aqueous phase, Table 1; for Extract Bioproduct conc. (%) / Raffinate Bioproduct conc. (%): 100 g aqueous solution, 2% initial bioproduct, mixed with 100 g 1-butene; for Extract Bioproduct conc. (%): extract phase; for Raffinate Bioproduct conc. (%): raffinate phase
Procedure: (§1) 100 g (grams) aqueous solutions of various bioproducts were prepared. Bioproduct initial concentration was 2%. Each of these bioproduct aqueous solutions was extracted in a pressure vessel by mixing with 100 g 1-butene (the olefin). The amount of formed extract and formed raffinate and the concentration (conc.) of the bioproduct in each were determined. Theses concentrations were used to calculate the bioproduct distribution coefficient (DC). Table 2 compares the found distribution coefficients to those of extracting with dimethyl ether (DME).

[2] = Extraction with dimethyl ether (DME), distribution coefficient for comparison; type: physicochemical; details: extracting with dimethyl ether
Procedure: as §1

[3] = 25° C.; cited from earlier work

| SMILES | DC (bioproduct distribution coefficient) [1] | Extract Bioproduct conc. (%) [1] | Raffinate Bioproduct conc. (%) [1] | Distribution coefficient DME [2] | n-butanol content of saturated aqueous solution [3] |
| --- | --- | --- | --- | --- | --- |
| CCCC=O [Butanal] | 6.96 | 1.78% | 0.26% | 5.11 |  |
| CCCC(C)=O [Example 2-Pentanone, 2-Pentanone] | 7.95 | 1.81% | 0.23% | 5.82 |  |
| O=Cc1ccco1 [Furfural] | 3.35 | 1.56% | 0.47% | 3.79 |  |
| O=C1CCCO1 [Gamma Butyrolactone] | 3.69 | 1.60% | 0.43% | 3.14 |  |
| O=C(O)CCCC(=O)O [Glutaric Acid] | 0.27 | 0.44% | 1.51% | 1.88 |  |
| CCCC(=O)OC [Methyl Butyrate] | 53.8 | 2.00% | 0.038% | 20.73 |  |
| CCC(=O)O [Propionic Acid] | 1.01 | 1.00% | 1.00% | 2.27 |  |
| O=C(O)CCC(=O)O [Succinic Acid] | 0.11 | 0.158% | 1.77% | 1.01 |  |
| CCCCO [n-butanol] |  |  |  |  | about 7.3 wt % |
